Experimental data reported in the kinase profiling compilation of Christmann-Franck et al. (2016).

Columns and labels:
Experiment in all cases: radiometric filter-binding kinase assay, Kinase HotSpot
Details in all cases: compound 0.5 µM; ATP 10 µM
[1] = molecular target: CDK7 CCNH MNAT1 (human) (UniProt P50613+P51948+P51946)
[2] = molecular target: MERTK (human) (UniProt Q12866)
[3] = molecular target: CSNK1G1 (human) (UniProt Q9HCP0)
[4] = molecular target: MAP2K1 (human) (UniProt Q02750)
[5] = molecular target: GSK3B (human) (UniProt P49841)
[6] = molecular target: RAF1 (human) (UniProt P04049)
[7] = molecular target: HIPK1 (human) (UniProt Q86Z02)
[8] = molecular target: MAPK3 (human) (UniProt P27361)
[9] = molecular target: CAMK2D (human) (UniProt Q13557)
[10] = molecular target: SRPK3 (human) (UniProt Q9UPE1)
[11] = molecular target: PHKG1 (human) (UniProt Q16816)
Sequence of PHKG1 (human) (Q16816 whole entry, looked up): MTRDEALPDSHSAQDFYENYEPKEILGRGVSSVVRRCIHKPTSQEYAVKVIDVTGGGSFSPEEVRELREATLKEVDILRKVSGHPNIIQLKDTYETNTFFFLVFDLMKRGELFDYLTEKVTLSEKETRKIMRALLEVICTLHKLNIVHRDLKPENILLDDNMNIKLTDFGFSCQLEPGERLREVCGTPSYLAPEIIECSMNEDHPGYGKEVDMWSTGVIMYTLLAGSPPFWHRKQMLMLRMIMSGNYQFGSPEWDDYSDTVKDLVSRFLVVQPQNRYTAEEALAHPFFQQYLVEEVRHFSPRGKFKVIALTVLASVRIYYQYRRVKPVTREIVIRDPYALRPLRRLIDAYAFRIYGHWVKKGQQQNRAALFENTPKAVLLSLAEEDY

[12] = molecular target: AURKA (human) (UniProt O14965)
[13] = molecular target: PLK1 (human) (UniProt P53350)
[14] = molecular target: DYRK1B (human) (UniProt Q9Y463)
[15] = molecular target: EPHA8 (human) (UniProt P29322)
[16] = molecular target: AKT1 (human) (UniProt P31749)
[17] = molecular target: MAPKAPK5 (human) (UniProt Q8IW41)
[18] = molecular target: MAPKAPK3 (human) (UniProt Q16644)
[19] = molecular target: PBK (human) (UniProt Q96KB5)
Sequence of PBK (human) (Q96KB5 whole entry, looked up): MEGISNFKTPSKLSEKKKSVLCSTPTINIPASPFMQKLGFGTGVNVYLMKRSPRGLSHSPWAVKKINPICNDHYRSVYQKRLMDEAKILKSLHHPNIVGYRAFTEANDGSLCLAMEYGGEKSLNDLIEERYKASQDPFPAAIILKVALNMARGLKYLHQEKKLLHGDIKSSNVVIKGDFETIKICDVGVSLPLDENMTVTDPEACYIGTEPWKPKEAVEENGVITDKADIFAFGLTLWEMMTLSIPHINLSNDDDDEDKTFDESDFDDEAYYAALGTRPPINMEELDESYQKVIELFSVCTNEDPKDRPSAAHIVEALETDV

[20] = molecular target: SLK (human) (UniProt Q9H2G2)
[21] = molecular target: PIM1 (human) (UniProt P11309)
[22] = molecular target: EPHB3 (human) (UniProt P54753)
Sequence of EPHB3 (human) (P54753 whole entry, looked up): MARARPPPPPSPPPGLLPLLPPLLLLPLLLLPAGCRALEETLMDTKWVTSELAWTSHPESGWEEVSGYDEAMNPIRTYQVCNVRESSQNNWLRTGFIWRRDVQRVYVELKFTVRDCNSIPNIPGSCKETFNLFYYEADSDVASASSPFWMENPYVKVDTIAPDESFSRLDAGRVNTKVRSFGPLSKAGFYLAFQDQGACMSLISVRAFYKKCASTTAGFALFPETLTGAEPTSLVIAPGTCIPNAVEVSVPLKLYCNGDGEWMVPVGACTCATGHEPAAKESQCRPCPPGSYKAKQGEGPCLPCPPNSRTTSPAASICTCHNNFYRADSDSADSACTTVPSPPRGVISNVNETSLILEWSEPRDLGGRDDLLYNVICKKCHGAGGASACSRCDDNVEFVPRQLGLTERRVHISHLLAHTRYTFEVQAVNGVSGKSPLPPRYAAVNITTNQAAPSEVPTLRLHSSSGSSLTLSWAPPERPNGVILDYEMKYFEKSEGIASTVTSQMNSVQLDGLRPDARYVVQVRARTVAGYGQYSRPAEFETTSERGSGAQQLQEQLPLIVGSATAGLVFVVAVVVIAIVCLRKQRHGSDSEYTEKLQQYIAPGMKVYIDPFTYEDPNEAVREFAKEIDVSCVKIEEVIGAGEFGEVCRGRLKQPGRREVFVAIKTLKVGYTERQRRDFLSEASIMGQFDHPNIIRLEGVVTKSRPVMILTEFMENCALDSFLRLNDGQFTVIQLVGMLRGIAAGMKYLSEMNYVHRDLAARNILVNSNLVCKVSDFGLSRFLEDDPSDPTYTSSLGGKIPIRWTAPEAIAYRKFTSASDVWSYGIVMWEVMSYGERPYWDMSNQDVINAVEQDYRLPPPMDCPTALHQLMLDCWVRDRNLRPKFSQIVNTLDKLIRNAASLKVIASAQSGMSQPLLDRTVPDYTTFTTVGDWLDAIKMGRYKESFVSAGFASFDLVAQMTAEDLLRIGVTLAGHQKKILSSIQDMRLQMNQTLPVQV

[23] = molecular target: PKN2 (human) (UniProt Q16513)
[24] = molecular target: EPHA2 (human) (UniProt P29317)
Sequence of EPHA2 (human) (P29317 whole entry, looked up): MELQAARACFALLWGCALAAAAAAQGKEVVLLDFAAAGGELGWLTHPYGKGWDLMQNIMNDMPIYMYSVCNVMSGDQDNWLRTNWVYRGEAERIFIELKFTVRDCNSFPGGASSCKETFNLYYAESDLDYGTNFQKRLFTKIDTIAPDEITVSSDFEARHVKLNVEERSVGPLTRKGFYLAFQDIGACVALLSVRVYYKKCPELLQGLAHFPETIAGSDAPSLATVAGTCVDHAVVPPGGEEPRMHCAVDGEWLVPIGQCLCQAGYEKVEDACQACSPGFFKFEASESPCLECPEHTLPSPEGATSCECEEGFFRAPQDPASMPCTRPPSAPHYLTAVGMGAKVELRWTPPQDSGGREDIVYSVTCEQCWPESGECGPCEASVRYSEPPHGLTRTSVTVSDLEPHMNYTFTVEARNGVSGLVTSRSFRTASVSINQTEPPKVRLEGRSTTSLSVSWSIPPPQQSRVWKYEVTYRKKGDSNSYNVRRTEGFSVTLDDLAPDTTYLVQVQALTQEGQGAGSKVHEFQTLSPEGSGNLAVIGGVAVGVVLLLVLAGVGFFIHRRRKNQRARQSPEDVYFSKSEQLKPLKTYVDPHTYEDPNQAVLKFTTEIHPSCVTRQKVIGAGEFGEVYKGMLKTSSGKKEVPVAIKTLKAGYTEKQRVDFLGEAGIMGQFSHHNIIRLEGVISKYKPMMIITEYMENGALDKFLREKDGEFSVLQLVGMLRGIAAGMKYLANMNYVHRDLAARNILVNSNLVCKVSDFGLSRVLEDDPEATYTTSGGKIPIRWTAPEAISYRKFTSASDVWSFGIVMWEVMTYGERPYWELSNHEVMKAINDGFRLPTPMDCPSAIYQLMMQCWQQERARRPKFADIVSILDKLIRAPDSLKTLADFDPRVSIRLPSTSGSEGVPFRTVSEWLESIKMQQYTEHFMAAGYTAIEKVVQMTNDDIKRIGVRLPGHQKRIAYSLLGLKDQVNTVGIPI

[25] = molecular target: CSF1R (human) (UniProt P07333)
[26] = molecular target: PRKCH (human) (UniProt P24723)
Sequence of PRKCH (human) (P24723 whole entry, looked up): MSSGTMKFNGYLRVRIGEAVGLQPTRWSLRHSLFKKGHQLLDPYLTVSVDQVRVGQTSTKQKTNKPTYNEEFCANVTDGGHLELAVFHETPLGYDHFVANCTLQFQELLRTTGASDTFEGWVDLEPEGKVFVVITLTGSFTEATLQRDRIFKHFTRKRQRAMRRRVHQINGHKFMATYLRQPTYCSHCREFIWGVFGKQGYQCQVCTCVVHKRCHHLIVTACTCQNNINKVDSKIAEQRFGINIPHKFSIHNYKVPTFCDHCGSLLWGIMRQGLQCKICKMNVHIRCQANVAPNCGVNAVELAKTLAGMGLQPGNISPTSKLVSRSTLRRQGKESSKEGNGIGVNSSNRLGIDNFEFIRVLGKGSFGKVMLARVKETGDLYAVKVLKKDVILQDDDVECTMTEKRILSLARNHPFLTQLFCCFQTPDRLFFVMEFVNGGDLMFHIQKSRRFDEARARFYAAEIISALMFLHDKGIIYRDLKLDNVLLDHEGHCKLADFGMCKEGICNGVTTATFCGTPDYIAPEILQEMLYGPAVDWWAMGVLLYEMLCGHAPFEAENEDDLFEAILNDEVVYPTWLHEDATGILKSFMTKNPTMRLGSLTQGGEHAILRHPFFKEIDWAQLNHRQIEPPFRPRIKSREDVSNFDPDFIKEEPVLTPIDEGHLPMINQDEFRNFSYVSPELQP

[27] = molecular target: NUAK2 (human) (UniProt Q9H093)
[28] = molecular target: PRKCA (human) (UniProt P17252)
[29] = molecular target: INSR (human) (UniProt P06213)
[30] = molecular target: MAPK11 (human) (UniProt Q15759)
[31] = molecular target: IRAK4 (human) (UniProt Q9NWZ3)
[32] = molecular target: STK16 (human) (UniProt O75716)
[33] = molecular target: MLTK (human) (UniProt Q9NYL2)
Sequence of MLTK (human) (Q9NYL2 whole entry, looked up): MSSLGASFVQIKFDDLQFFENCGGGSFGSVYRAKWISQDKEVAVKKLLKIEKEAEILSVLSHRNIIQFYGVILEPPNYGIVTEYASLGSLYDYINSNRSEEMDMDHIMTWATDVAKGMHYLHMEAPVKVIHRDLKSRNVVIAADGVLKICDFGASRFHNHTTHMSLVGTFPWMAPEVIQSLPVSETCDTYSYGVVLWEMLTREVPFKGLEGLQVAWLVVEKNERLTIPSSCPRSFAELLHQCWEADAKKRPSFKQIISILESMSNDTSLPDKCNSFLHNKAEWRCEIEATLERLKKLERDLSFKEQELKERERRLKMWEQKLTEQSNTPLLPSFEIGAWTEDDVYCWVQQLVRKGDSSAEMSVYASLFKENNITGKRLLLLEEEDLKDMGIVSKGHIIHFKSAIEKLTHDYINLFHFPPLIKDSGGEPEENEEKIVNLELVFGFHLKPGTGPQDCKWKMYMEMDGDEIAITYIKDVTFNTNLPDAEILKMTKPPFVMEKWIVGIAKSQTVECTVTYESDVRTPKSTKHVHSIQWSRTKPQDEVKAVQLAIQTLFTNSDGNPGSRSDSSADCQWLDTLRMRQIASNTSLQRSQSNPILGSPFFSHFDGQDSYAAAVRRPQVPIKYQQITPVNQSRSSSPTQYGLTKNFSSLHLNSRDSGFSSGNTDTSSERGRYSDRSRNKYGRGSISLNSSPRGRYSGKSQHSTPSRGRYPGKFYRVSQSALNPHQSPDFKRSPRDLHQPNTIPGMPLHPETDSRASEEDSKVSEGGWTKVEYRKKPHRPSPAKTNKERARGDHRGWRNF

[34] = molecular target: PTK6 (human) (UniProt Q13882)
[35] = molecular target: ERBB2 (human) (UniProt P04626)
[36] = molecular target: AURKC (human) (UniProt Q9UQB9)
[37] = molecular target: NEK3 (human) (UniProt P51956)
[38] = molecular target: OXSR1 (human) (UniProt O95747)
[39] = molecular target: NEK6 (human) (UniProt Q9HC98)
Sequence of NEK6 (human) (Q9HC98 whole entry, looked up): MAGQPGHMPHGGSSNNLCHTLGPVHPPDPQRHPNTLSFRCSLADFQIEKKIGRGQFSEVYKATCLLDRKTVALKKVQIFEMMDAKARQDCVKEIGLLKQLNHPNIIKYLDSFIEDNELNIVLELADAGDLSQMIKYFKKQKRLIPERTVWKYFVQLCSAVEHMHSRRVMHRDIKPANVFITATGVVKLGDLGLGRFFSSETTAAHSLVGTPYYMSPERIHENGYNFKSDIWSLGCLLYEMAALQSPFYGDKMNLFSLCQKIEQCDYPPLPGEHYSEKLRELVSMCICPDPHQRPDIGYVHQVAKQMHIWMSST

[40] = molecular target: NTRK2 (human) (UniProt Q16620)
[41] = molecular target: JAK1 JH1 catalytic (human) (UniProt P23458)
[42] = molecular target: PAK3 (human) (UniProt O75914)
Sequence of PAK3 (human) (O75914 whole entry, looked up): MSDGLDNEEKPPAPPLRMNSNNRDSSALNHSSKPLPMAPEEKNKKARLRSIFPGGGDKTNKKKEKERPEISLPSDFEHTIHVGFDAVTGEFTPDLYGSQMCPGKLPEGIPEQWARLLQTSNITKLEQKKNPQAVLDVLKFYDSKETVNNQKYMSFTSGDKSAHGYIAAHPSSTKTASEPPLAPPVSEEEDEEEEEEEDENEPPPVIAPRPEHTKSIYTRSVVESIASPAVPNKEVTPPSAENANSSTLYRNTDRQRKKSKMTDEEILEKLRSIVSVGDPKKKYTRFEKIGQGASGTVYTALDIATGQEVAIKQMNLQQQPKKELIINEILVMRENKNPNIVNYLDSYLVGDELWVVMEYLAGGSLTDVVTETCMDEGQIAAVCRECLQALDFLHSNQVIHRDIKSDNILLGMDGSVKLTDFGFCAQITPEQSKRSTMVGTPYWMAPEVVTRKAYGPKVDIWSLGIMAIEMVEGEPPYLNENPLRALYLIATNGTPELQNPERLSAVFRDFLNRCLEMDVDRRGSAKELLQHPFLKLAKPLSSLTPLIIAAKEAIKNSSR

Work on CCCNC(=O)Nc1ccc(Oc2ncnc3cc(OC)c(OC)cc23)cc1Cl yielded a residual activity [1] of 119%, a residual activity [2] of 67.7% and a residual activity [3] of 97.1%. For the same compound, the residual activity [4] was 99.2%, the residual activity [5] was 91.3% and the residual activity [6] was 85.4%. The residual activity [7] was 96.8%, the residual activity [8] was 105% and the residual activity [9] was 89.4%. For the same compound, the residual activity [10] was 95.8%, the residual activity [11] was 91.3% and the residual activity [12] was 89.2%. For the same compound, the residual activity [13] was 101%, the residual activity [14] was 104% and the residual activity [15] was 105%. The residual activity [16] was 93%, the residual activity [17] was 92.2% and the residual activity [18] was 95.8%. The residual activity [19] was 66.2%, the residual activity [20] was 80% and the residual activity [21] was 102%. The residual activity [22] was 93.7%, the residual activity [23] was 99.2% and the residual activity [24] was 104%. It also gave a residual activity [25] of 51.1%, a residual activity [26] of 101% and a residual activity [27] of 123%. The residual activity [28] was 99.3%, the residual activity [29] was 92.4% and the residual activity [30] was 88.5%. It also gave a residual activity [31] of 92%, a residual activity [32] of 93.4% and a residual activity [33] of 103%. It also gave a residual activity [34] of 48.3%, a residual activity [35] of 116% and a residual activity [36] of 71.6%. The residual activity [37] was 93.8%, the residual activity [38] was 96.5% and the residual activity [39] was 105%. It also gave a residual activity [40] of 102%, a residual activity [41] of 99.2% and a residual activity [42] of 94.7%.
Cc1ccc(NC(=O)c2ccc(CN3CCN(C)CC3)cc2)cc1Nc1nc(-c2cccnc2)cs1 gave a residual activity [1] of 110%, a residual activity [2] of 109% and a residual activity [3] of 92.4%. For the same compound, the residual activity [4] was 111%, the residual activity [6] was 77.5% and the residual activity [7] was 97.4%. The residual activity [8] was 103%, the residual activity [9] was 106% and the residual activity [10] was 102%. The residual activity [11] was 92.2%, the residual activity [12] was 105% and the residual activity [13] was 101%. It also gave a residual activity [14] of 95.7%, a residual activity [15] of 93.1% and a residual activity [16] of 93.2%. The residual activity [17] was 103%, the residual activity [18] was 97.9% and the residual activity [19] was 99.6%. It also gave a residual activity [20] of 92.4%, a residual activity [21] of 86.4% and a residual activity [22] of 80.9%. It also gave a residual activity [23] of 108%, a residual activity [24] of 91.2% and a residual activity [25] of 8.38%. The residual activity [26] was 102%, the residual activity [27] was 98.4% and the residual activity [28] was 110%. For the same compound, the residual activity [29] was 99%, the residual activity [30] was 102% and the residual activity [31] was 97.4%. For the same compound, the residual activity [32] was 103%, the residual activity [33] was 86.8% and the residual activity [34] was 79.2%. For the same compound, the residual activity [35] was 103%, the residual activity [36] was 112% and the residual activity [37] was 99.4%. It also gave a residual activity [38] of 95.6%, a residual activity [39] of 91.3% and a residual activity [40] of 101%. The residual activity [41] was 98.8% and the residual activity [42] was 106%.
